From PubChem BioAssay AID2823 (Broad Institute, 2010)
Calls of active or inactive are those of the source. How the calls were made is not given here.

The compounds below were run against RanGTP-importin-beta complex (human Ran / KPNB1) (assay: Ran–importin-beta interaction inhibitors, confirmation, biochemical, FRET, CFP/YFP, cell-free homogeneous (AID 2823)). Settings: CFP-Ran/YFP-importin-beta FRET ratio.

| Structure (SMILES) | IC50 |
| --- | --- |
| CCN(CC)S(=O)(=O)c1ccc(/C=C/C(=O)Nc2ccc(F)cc2F)cc1 | > 50 µM (inactive) |
| C/C(=N\NC(=S)NCc1ccccc1)c1cccc(Br)c1 | > 50 µM (inactive) |
| CC(NC(=O)/C(C#N)=C/c1ccc(N2CCOCC2)cc1)c1ccccc1 (stereo unspecified) | 20.2 µM |
| CCOC(=O)N1CCN(c2cc(=O)n(Cc3ccc(F)cc3)c(=O)[nH]2)CC1 | > 50 µM (inactive) |
| COc1ccc2c(CC#N)c[nH]c2c1 | > 50 µM (inactive) |
| Cc1ccccc1N=Cc1cc2c(cc1O)OC(N)=C(C#N)C2c1ccccc1 (stereo unspecified) | > 50 µM (inactive) |
| CCS(=O)(=O)c1ccc(S(=O)(=O)CC)s1 | > 50 µM (inactive) |
| COCc1ccc(CN2CCCC(CO)(Cc3ccccc3C)C2)o1 (stereo unspecified) | > 50 µM (inactive) |
| O=C(O)C1C2CCC(C2)C1C(=O)NCCc1ccc(F)cc1 (stereo unspecified) | > 50 µM (inactive) |
| CCn1c(=O)cc(N2CCC3(CC2)OCCO3)[nH]c1=O | > 50 µM (inactive) |
| Cc1ccc(O)c(Nc2c3ccccc3nc3ccccc23)c1 | 48.8 µM |
| OCCN1CCN(c2nc(-c3ccccc3)c3cc(Cl)ccc3n2)CC1 | 22.2 µM |
| CC#CC(=O)N1CCC(C(=O)Nc2ccc(Oc3ccccc3)nc2)CC1 | > 50 µM (inactive) |
| COc1ccccc1N=C(C)C1=C(O)CC(c2ccccc2)CC1=O (stereo unspecified) | > 50 µM (inactive) |
| CCOC(=O)c1c(NC(=O)CN2CCCc3ccccc32)sc(C(C)=O)c1C | > 50 µM (inactive) |
| Cn1c(=O)oc2cc(S(=O)(=O)NCCC(=O)N3CC=C(c4ccccc4)CC3)ccc21 | > 50 µM (inactive) |
| CC(=O)O[C@H]1CCC2C3CCC4=CC(=O)CCC4=C3C=C[C@@]21C (stereo partly specified) | > 50 µM (inactive) |
| Cc1ccc(C(=O)Nc2ncc(Cc3ccc(F)cc3)s2)o1 | > 50 µM (inactive) |
| COc1ccc(CCNc2oc(-c3ccco3)nc2C#N)cc1 | > 50 µM (inactive) |
| CCOC(=O)N1CCN(c2cc(=O)n(C3CCCCC3)c(=O)[nH]2)CC1 | > 50 µM (inactive) |
| CCC1(C(=O)OC)NC(c2cccc(F)c2)C2C(=O)N(C)C(=O)C21 (stereo unspecified) | > 50 µM (inactive) |

| Structure (SMILES) | IC50 |
| --- | --- |
| CCOC(=O)CC(=O)CSc1nc2c(cc1C#N)CCC2 | 29.2 µM |
| COc1ccc(CNc2ccc3c(c2)ncn3-c2ccccc2OC)cc1 | > 50 µM (inactive) |
| Clc1ccc(/C=C/c2ncc3ccccn23)cc1 | 12.5 µM |
| COc1cccc(C2=NOC(C(=O)Nc3cc(C)on3)C2)c1 (stereo unspecified) | > 50 µM (inactive) |
| COC(=O)C1=CN(CC2CCCO2)C=C(C(=O)OC)C1c1cccc(O)c1 (stereo unspecified) | 14.1 µM |
| CC(C)OCCCNC(=O)CCSc1ccc(Cl)cc1 | > 50 µM (inactive) |
| Cc1cc(C=C(C#N)C#N)ccc1N1CCCC1 | > 50 µM (inactive) |
| Cc1ccc2[nH]c(=O)c(C(c3nnnn3Cc3ccccc3)N3CCc4ccccc43)cc2c1 (stereo unspecified) | > 50 µM (inactive) |
| CCC(=O)N(CC(=O)Nc1sc(C)c(C)c1C(N)=O)C1CCCC1 | > 50 µM (inactive) |
| C=CCn1c(=O)c(C(=O)Nc2ccc(C)cc2)c(O)c2ccccc21 | > 50 µM (inactive) |
| CC(C)(C)Nc1nc(SCC(=O)Nc2ccccc2)nc(N2CCOCC2)n1 | > 50 µM (inactive) |
| COc1cc(C(=O)Oc2c(CN3CCOCC3)cc(Cl)c3cccnc23)cc(OC)c1OC | > 50 µM (inactive) |
| COC(=O)c1cc(C(=O)OC)[nH]n1 | > 50 µM (inactive) |
| O=c1cc(N2CCC3(CC2)OCCO3)[nH]c(=O)n1-c1ccc(Br)cc1 | > 50 µM (inactive) |
| CC1CCN(c2cc(=O)n(C3CCCCC3)c(=O)[nH]2)CC1 | > 50 µM (inactive) |
| NC(=O)N/N=C/c1ccccc1OC(=O)c1cc2ccccc2oc1=O | > 50 µM (inactive) |
| COC(=O)C1=CN(Cc2ccccc2)C=C(C(=O)OC)C1c1cc(F)ccc1F | 15.9 µM |
| CN(C)C=NC(=O)c1cc(C(=O)c2ccc(C(C)(C)C)cc2)c[nH]1 | > 50 µM (inactive) |
| COc1ccc2c(c1)C(c1ccc(C)o1)=NNC(c1cccnc1)=N2 | > 50 µM (inactive) |
| Cc1c(OCC(=O)NCc2ccncc2)ccc2c3c(c(=O)oc12)CCC3 | > 50 µM (inactive) |
